Laboratory results taken from patent EP0812190B1 (priority 1993, dated 1995).
Read-outs that look alike come from different tables or passages of the source.

Columns and labels:
MAO-B = biological target: T1, MAO-B (Rattus norvegicus, UniProt P19643); assay: in vivo; conditions: for ED50 / inhibition at 0.5 mg/kg: rat
T1 sequence (P19643 1-520): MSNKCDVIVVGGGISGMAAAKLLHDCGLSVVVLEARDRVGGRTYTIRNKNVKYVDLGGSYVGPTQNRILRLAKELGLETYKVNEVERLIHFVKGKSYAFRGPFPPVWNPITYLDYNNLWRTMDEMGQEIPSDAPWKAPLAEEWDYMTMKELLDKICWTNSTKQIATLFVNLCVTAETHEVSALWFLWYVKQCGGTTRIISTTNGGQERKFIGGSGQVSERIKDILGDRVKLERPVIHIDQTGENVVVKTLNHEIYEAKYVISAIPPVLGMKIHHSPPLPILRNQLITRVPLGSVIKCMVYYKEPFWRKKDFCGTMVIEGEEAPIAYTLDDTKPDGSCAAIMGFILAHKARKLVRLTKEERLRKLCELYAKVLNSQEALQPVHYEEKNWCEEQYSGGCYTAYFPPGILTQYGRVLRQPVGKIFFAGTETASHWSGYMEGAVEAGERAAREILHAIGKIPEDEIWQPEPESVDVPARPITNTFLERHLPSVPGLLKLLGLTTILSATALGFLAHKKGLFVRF
Procedure: Groups of three rats were used for each dose level of inhibitor, and MAO activity determined in brain and liver using the general technique described above. The amount of protein in each incubation was determined using the Folin-Lowry method, and enzyme activity calculated as nmol of substrate metabolized per hour of incubation for each mg of protein. Activity of MAO in tissues from animals treated with inhibitors was expressed as a percentage of the enzyme activity in a group of control animals administered vehicle (water for oral administration, 0.9% saline for ip injection) and killed as above.

MAO-A = biological target: T2, MAO-A (Rattus norvegicus, UniProt P21396); conditions: 21 days
T2 sequence (P21396 1-526): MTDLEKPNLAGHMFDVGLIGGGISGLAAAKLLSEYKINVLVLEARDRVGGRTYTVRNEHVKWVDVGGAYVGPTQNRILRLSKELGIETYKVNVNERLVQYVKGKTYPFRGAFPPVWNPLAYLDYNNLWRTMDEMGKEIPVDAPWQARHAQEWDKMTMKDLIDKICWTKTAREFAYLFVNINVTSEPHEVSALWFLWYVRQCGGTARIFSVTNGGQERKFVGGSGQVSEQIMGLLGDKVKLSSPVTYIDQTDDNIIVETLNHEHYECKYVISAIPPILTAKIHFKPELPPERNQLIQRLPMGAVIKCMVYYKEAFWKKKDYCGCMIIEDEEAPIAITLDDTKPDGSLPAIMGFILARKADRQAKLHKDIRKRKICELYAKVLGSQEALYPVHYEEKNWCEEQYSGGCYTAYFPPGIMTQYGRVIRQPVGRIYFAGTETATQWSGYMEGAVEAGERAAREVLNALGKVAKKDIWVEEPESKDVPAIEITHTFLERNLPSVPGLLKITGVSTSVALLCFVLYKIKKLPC
Procedure: (+)PAI or the racemic mixture at three dose levels (0.05, 0.1 and 0.5mg/kg) by oral administration, one dose daily for 21 days, and decapitated 2 hours after the last dose.

[1] = system: MPTP-induced striatal dopamine depletions; assay: Suppression of MPTP-induced dopaminergic toxicity (striatal DA and DOPAC); format: in vivo, mice; conditions: striatum
Procedure: Brains were removed and corpora striata dissected on an ice-cold glass plate and frozen on dry ice. Striatal tissues were homogenized in 0.1 M perchloric acid, and deproteinized aliquots containing dihydroxybenzylamine as an internal standard were assayed for dopamine and its major metabolite 3,4-dihydroxy-phenylacetic acid (DOPAC) using HPLC with electrochemical detection.

[2] = system: amphetamine-induced stereotype behavior; conditions: 0.5 mg/kg/day in drinking water, lateral head movements over 1 minute
Procedure: The extent of this behavior is rated in accordance with the number of lateral head movements over a period of 1 minute.
Following that, amphetamine was injected s.c. at a dose of 0.5 mg/kg. 45 minutes later, lateral head movements were counted.

guinea-pig ileum = assay: tissue or blood; conditions: Cavia porcellus, read-out: Percent relaxation

C#CCN[C@@H]1CCc2ccccc21 [[R](+)PAI, R(+)-N-propargyl-1-aminoindan]
inhibition of MAO-B in brain and liver (MAO-B; dose of 1mg/kg): complete inhibition | ED50 (MAO-B; ip, 1 h, read-out: IC-50 MAO-B I.P. BRAIN): 0.07 mg/kg | ED50 (MAO-B; ip, 1 h, read-out: IC-50 MAO-B I.P. LIVER): 0.06 mg/kg | inhibition at 0.5 mg/kg (MAO-B; ip, read-out: inhibition of brain MAO-B activity): 90% | ED50 (MAO-B; po, 2 h, read-out: IC-50 MAO-B P.O. BRAIN): 0.17 mg/kg | ED50 (MAO-B; po, 2 h, read-out: IC-50 MAO-B P.O. LIVER): 0.05 mg/kg | inhibition at 0.5 mg/kg (MAO-B; po, read-out: inhibition of MAO-B): 80% | inhibition of brain MAO-A (MAO-A; 0.1mg/kg daily oral): ≤ 20% | inhibition of MAO-A (MAO-A; 0.5mg/kg daily oral): less than 50% | DOPAC ([1]; drug alone (PAI isomers […] i.p., deprenyl 5 mg/kg i.p.)): 3.3±0.3 ng/mg protein | DA ([1]; drug alone (PAI isomers […] i.p., deprenyl 5 mg/kg i.p.), Mean±S.E.M.): 185.0±6.9 ng/mg protein | DA ([1]; pretreatment one hour before MPTP-HCl 30 mg/kg s.c. (PAI isomers […] i.p., deprenyl 5 mg/kg i.p.), 5 days later): 177.8±14.4 ng/mg protein | DOPAC ([1]; pretreatment one hour before MPTP-HCl 30 mg/kg s.c., 5 days later): 6.0±0.3 ng/mg protein | Stereotype Behavior Rating ([2]; control senescent rats, 45 min after amphetamine 0.5 mg/kg s.c.): 126±16 | Stereotype Behavior Rating ([2]; hypoxia lesioned senescent rats): 143±6 | inhibition at 60 µM (guinea-pig ileum): 25 to 50%
